Measurements as given in ChEMBL document CHEMBL5446079, “Affinity Biochemical Literature for EUbOPEN Chemogenomic Library” (2024).

Experiments:
[1] = target: T1, Casein kinase I isoform delta (Homo sapiens, UniProt P48730)
[2] = target: T2, Casein kinase I isoform epsilon (Homo sapiens, UniProt P49674)
[3] = target: T3, Casein kinase I isoform alpha (Homo sapiens, UniProt P48729)
[4] = target: T2, Casein kinase I isoform epsilon; remark: listed apart in the source
[5] = target: T3, Casein kinase I isoform alpha; remark: listed apart in the source
[6] = target: T1, Casein kinase I isoform delta; remark: listed apart in the source
[7] = target: T4, Inhibitor of nuclear factor kappa-B kinase subunit beta (Homo sapiens, UniProt O14920)
T4 sequence (O14920 whole entry): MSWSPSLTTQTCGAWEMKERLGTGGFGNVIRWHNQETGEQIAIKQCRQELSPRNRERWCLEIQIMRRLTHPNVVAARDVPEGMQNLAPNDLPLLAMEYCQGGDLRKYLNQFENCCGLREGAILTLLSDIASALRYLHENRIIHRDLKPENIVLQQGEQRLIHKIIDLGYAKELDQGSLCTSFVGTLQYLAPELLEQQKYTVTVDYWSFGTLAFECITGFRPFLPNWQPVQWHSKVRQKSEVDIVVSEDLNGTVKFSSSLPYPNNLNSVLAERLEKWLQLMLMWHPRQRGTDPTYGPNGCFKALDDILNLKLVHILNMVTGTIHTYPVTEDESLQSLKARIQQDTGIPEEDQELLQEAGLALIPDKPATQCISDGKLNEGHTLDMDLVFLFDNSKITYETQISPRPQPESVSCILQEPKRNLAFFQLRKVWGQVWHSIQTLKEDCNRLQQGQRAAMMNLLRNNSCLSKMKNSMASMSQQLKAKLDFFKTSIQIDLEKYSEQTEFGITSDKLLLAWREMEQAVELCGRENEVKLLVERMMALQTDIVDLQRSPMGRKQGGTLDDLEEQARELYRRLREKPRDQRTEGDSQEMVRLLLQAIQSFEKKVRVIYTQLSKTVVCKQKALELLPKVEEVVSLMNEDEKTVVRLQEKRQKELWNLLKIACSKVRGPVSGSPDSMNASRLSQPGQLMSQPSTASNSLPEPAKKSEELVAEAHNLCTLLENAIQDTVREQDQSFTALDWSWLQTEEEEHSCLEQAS

T1 sequence (P48730 whole entry, canonical isoform): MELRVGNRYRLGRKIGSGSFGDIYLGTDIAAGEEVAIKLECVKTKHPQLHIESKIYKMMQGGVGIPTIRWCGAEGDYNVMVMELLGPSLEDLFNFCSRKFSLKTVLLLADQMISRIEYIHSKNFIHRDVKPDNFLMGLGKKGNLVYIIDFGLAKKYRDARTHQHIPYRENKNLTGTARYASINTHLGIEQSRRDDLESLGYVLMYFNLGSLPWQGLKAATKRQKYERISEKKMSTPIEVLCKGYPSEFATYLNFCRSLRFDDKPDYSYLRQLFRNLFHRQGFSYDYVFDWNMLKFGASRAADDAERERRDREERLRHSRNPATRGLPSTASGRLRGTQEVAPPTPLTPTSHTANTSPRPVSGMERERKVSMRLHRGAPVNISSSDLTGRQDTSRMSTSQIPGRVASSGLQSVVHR
T2 sequence (P49674 whole entry, canonical isoform): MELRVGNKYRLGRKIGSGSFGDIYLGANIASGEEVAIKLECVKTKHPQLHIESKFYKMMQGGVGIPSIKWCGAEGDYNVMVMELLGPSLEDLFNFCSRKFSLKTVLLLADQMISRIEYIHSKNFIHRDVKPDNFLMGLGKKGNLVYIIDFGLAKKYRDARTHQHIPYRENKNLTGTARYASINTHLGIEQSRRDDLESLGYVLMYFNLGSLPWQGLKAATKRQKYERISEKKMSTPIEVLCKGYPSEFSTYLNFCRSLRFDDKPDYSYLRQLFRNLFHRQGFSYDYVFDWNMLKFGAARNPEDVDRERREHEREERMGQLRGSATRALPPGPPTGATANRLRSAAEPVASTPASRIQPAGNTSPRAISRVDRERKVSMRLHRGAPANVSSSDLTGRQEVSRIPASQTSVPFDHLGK
T3 sequence (P48729 whole entry, canonical isoform): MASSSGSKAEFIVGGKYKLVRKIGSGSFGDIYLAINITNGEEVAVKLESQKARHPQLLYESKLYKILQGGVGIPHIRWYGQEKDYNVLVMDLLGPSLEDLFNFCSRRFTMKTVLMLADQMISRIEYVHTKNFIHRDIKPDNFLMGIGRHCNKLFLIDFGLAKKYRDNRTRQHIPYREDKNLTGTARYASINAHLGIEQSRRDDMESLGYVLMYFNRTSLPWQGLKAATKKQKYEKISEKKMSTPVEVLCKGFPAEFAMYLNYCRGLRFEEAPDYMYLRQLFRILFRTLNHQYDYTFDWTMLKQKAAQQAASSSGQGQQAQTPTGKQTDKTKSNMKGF

## CN1CCC(F)(Cn2cnc(-c3ccc(F)cn3)c2-c2ccnc3[nH]ccc23)CC1
[1]
  IC50: 6.1 nM
[2]
  IC50: 27.3 nM
[3]
  IC50: 7.2 nM

## CCc1ccc(-c2ncn(CC3(F)CCN(C)CC3)c2-c2ccnc3[nH]ccc23)nc1
[4]
  IC50: > 3000 nM
[5]
  IC50: > 3000 nM
[6]
  IC50: > 3000 nM

## CN(C)C(=O)c1sc2nc(N3CCC(S(C)(=O)=O)CC3)cc(C(F)(F)F)c2c1N [BI-5026]
[7]
  IC50: > 10000 nM
